Here are results for 20 compounds from ChEMBL document CHEMBL2169756, “Recent results in protein kinase inhibition for tropical diseases” (Bioorg Med Chem Lett, 2012).

Values after ≈ are worked out from the molar mass of the structure shown.

For data set [1], the target named is T1, Cdc2-related kinase (Leishmania major, UniProt O96526).
T1 sequence (O96526 whole entry): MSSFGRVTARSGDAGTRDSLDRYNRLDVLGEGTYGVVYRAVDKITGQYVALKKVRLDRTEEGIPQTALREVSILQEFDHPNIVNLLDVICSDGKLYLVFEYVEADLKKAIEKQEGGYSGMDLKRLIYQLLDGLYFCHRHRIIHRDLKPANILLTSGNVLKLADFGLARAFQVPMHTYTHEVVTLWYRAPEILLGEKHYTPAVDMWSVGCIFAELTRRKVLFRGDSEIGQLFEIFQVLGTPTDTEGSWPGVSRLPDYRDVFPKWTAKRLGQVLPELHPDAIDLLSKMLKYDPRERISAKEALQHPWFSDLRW
The data set is described as follows: Inhibition of Leishmania major CRK3 expressed in Escherichia coli BL21 (DE3) using 5FAM-GGGRSPGRRRRK-OH as substrate after 60 mins by IMAP assay.

The nature of data set [2]: Selectivity ratio of cytotoxicity for […] to IC50 for Mycobacterium tuberculosis H37Rv. It counts as cell-based.
For data set [3], the system named is Mycobacterium tuberculosis. The data set is described as follows: Antitubercular activity against Mycobacterium tuberculosis H37Rv by high throughput assay. It counts as functional.
Data set [4] can be described thus: Inhibition of Plasmodium falciparum MPK.
A further data set deals with Trypanosoma brucei. Briefly: Antitrypanosomal activity against Trypanosoma brucei infected in Swiss Webster mouse assessed as cure rate at 20 mg/kg, ip bid administered 4 days post infection. It counts as functional. Particulars: route intraperitoneal.
Data set [5] deals with Leishmania donovani. Briefly: Antileishmanial activity against Leishmania donovani MHOM/SD/62/1SCL2D amastigotes after 72 hrs by resazurin reduction assay. It counts as functional, organism-based. For orientation: Resazurin is reduced to fluorescent resorufin, in cell work by metabolically active cells.
The test system of data set [6] is Leishmania donovani. Briefly: Antileishmanial activity against Leishmania donovani MHOM/SD/62/1SCL2D promastigotes after 72 hrs by resazurin reduction assay. It counts as functional, organism-based.
The subject of data set [7] is Trypanosoma brucei brucei. Briefly: Antitrypanosomal activity against procyclic Trypanosoma brucei brucei 29-13 after 72 hrs by resazurin microplate assay. It counts as functional, organism-based. Particulars: 29-13, 72 h.
Data set [8] deals with Trypanosoma brucei brucei. Briefly: Antitrypanosomal activity against bloodstream form of Trypanosoma brucei brucei 427 after 72 hrs by resazurin microplate assay. It counts as functional, organism-based. Particulars: Trypanosoma brucei, 427, 72 h.
The test system of the next data set is Leishmania major. Briefly: Antileishmanial activity against Leishmania major promastigotes. It counts as functional, organism-based.
Data set [9] deals with T1, Cdc2-related kinase. The data set is described as follows: Inhibition of Leishmania major CRK3 expressed in Escherichia coli BL21 (DE3) after 30 mins by autoradiography.
For data set [10], the target named is T2, Calcium-dependent protein kinase 4 (Plasmodium falciparum (isolate 3D7), UniProt Q8IBS5).
T2 sequence (Q8IBS5 whole entry): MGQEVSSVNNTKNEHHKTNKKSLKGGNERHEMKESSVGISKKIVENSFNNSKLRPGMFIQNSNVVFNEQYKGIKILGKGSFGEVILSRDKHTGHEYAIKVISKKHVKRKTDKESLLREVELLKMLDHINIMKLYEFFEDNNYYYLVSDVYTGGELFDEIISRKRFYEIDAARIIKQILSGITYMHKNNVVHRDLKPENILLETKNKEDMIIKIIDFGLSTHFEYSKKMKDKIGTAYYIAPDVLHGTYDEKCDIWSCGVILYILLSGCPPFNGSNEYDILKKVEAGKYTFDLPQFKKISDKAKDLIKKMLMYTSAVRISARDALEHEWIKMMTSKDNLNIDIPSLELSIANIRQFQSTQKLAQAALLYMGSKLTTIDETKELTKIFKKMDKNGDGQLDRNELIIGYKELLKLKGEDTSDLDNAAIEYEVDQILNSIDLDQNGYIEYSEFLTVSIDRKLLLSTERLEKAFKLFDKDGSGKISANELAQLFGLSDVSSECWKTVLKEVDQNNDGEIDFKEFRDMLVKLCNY
The data set is described as follows: Inhibition of CDPK4 in Plasmodium falciparum 3D7 microgametes.

The target in data set [11] is cGMP-dependent protein kinase (Plasmodium falciparum, UniProt W7JX98). Briefly: Inhibition of PKG in Plasmodium falciparum 3D7 microgametes.
cGMP-dependent protein kinase, sequence (W7JX98 whole entry): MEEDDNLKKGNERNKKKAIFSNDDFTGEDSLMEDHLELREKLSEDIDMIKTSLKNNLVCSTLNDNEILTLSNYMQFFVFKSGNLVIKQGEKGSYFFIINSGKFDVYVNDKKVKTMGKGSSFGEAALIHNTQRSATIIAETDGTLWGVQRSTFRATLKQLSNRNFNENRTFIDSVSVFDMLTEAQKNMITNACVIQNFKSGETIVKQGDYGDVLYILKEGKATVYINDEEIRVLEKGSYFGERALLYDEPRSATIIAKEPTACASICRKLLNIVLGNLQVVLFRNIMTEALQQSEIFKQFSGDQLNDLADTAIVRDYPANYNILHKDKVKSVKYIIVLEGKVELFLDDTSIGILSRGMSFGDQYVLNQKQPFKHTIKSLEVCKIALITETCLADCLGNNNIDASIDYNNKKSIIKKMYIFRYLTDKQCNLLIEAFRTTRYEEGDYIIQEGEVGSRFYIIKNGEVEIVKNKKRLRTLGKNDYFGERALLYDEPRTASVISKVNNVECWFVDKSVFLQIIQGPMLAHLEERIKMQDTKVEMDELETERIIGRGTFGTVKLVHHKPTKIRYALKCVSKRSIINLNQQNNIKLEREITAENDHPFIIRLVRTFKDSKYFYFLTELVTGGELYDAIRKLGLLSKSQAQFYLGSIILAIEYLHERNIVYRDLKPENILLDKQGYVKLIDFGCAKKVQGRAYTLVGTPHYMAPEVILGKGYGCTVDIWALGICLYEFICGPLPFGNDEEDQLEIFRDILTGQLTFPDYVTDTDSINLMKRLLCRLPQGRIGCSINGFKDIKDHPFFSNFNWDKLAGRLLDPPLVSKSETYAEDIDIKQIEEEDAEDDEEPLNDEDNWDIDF
The target of data set [12] is Cyclin-dependent kinase 6 (Homo sapiens, UniProt Q00534). The data set is described as follows: Inhibition of human CDK6.
Cyclin-dependent kinase 6, sequence (Q00534 whole entry): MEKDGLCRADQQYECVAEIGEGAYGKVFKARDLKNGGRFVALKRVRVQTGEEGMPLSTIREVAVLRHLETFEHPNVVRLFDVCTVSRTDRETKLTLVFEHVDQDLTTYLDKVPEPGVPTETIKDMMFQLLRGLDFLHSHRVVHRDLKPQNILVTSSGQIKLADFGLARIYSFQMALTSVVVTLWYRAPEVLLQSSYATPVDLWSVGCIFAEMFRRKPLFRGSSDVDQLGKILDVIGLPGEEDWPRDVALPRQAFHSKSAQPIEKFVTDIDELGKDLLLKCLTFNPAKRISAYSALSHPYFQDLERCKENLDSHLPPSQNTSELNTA
The target of data set [13] is Cyclin-dependent kinase 7 (Homo sapiens, UniProt P50613). The data set is described as follows: Inhibition of human CDK7.
Cyclin-dependent kinase 7, sequence (P50613 whole entry): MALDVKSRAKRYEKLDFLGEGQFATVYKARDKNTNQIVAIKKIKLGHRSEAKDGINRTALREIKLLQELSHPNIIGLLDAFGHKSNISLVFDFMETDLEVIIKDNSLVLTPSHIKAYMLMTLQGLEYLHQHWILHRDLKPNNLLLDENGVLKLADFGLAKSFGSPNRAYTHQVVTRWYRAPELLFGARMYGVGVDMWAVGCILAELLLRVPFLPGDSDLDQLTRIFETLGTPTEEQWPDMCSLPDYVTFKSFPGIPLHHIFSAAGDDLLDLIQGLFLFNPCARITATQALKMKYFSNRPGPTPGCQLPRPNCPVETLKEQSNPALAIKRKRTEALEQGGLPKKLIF
Data set [14] addresses Cyclin-dependent kinase 2 (Homo sapiens, UniProt P24941). The data set is described as follows: Inhibition of human CDK2.
Data set [15] deals with Cyclin-dependent kinase 1 (Homo sapiens, UniProt P06493). The data set is described as follows: Inhibition of human CDK1.
Cyclin-dependent kinase 1, sequence (P06493 whole entry): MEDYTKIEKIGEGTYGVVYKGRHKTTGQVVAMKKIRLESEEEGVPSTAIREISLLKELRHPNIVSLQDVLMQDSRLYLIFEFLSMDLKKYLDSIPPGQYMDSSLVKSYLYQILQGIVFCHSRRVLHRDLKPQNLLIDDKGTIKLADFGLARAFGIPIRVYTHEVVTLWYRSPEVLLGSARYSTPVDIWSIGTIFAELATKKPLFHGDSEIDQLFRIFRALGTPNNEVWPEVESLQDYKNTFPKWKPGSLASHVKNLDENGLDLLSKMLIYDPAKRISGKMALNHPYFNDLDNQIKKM
For the next data set, the system named is Plasmodium falciparum. The data set is described as follows: Antimalarial activity against Plasmodium falciparum. It counts as functional, organism-based.
The subject of the next data set is Toxoplasma gondii. The data set is described as follows: Antiprotozoal activity against Toxoplasma gondii expressing low level of ROP18 infected in human HFF cells. It counts as functional, organism-based.

A word on the IC50: it is the point on the concentration scale where inhibition reaches its midpoint. `Cc1cc(C)cc(-c2ccc3nc(NC(=O)C4CCCCCC4)n(C)c3c2)c1` displayed an IC50 at Cdc2-related kinase [1] of 5 nM.
The same measure, in the same setting: under `CCN(Cc1ccc(/C=C2\C(=O)Nc3ccccc32)o1)S(C)(=O)=O` stands 510 nM.
For orientation: IC90 means the point of the concentration-response curve where the effect stands at 90%. For the compound `COc1ccccc1-c1cnn2c(Nc3cccc(Cl)c3)cc(C)nc12`, in data set [2], the selectivity ratio was determined as 19. The compound also registered an IC90 in [3] of 1.7 µg/mL (≈ 4.66 µM).
Turning to `COc1cc(-c2ccc3nc(NC(=O)C4CCCCC4)nn3c2)ccc1O`, on Cdc2-related kinase [1], the IC50 amounted to 240 nM.
On Cdc2-related kinase [1], `Cc1ccc(NC(=O)Nc2ccnc(-c3cccnc3)n2)cc1` displayed an IC50 of 1500 nM.
As to `Cc1ccc(N(C(=O)CCl)S(=O)(=O)c2cc(Cl)sc2Cl)cc1`, the 50% inhibitory concentration (IC50) in data set [4] turned out to be 127000 nM.
As to `CC(=O)c1cccc(-c2cnn3ccc(Nc4ccc(N5CCOCC5)cc4)nc23)c1`, the IC50 against Cdc2-related kinase [1] is 260 nM.
As to `O=C(OCn1nnc2ccccc2c1=O)c1ccccc1`, the selectivity ratio in [2] is over 28. The compound also showed an IC90 in data set [3] of 1.4 µg/mL (≈ 4.98 µM).
`O=S(=O)(Nc1ccccc1)c1cc(Cl)sc1Cl` registered an IC50 in [4] of 15000 nM.
In the case of `CC(C)(C)c1ccc(C(=O)Nc2nnc(-c3cccnc3)o2)cc1`, in [2], the selectivity ratio was over 48. Further, the 90% effect concentration (IC90) in data set [3] amounted to 0.84 µg/mL (≈ 2.61 µM).
Consider `Cc1cccc(-c2ccc3nc(NC(=O)C4CCCCC4)nn3c2)c1`, for which the IC50 against Cdc2-related kinase [1] came out at 60 nM.
As for `COc1ccccc1C(=O)c1cnc(NC2CCN(C(=O)Nc3ccccc3)CC2)nc1N`, in the data set on Trypanosoma brucei, the Activity amounted to 100%. The IC50 amounted to 1000 nM with Leishmania donovani [5], 1000 nM with Leishmania donovani [6], 70 nM in data set [7] and 70 nM in data set [8].
For the compound `COc1ccc(-n2nnc3c(N4CCCC(O)C4)nc(CC4CCCCC4)nc32)cc1` (centres undefined), the IC50 with Leishmania major was 8600 nM; against Cdc2-related kinase [9], 5300 nM.
On to `CC(C)(C)n1nc(-c2ccc3ccccc3c2)c2c(N)ncnc21`, for which, in data set [10], the IC50 came to 177 nM.
`CN1CCC(c2cc(-c3ccncc3)c(-c3ccc(F)cc3)[nH]2)CC1`: in data set [11], the IC50 was determined as 8 nM.
As for `O=C(CBr)N(c1ccccc1)S(=O)(=O)c1cc(Cl)sc1Cl`, the IC50 in [12] was over 20000 nM; in data set [13], over 20000 nM; in [14], over 20000 nM; in [4], 600 nM; in data set [15] it was over 20000 nM; in the data set on Plasmodium falciparum, 17000 nM.
Take `Oc1ccccc1-c1nc(NCc2cccnc2)c2ccccc2n1`: it took 11000 nM to reach half-maximal inhibition on Cdc2-related kinase [1] (IC50).
For `O=C(Nc1nnc(-c2ccco2)o1)c1ccc(Oc2ccccc2)cc1`, the selectivity ratio in [2] is over 75. For the same compound, the IC90 in [3] was under 0.2 µg/mL.
On to `Cc1cc(C)cc(-c2ccc3nc(NC(=O)C4CCCCC4)nn3c2)c1`, for which half-maximal inhibition against Cdc2-related kinase [1] (IC50) required 20 nM.
In the data set with Toxoplasma gondii, `Cn1c(=O)c(/C=C/c2ccc3c(c2)OCO3)nc2ccccc21` gave an IC50 of 2 nM.
